Test results: patent US20230391826A1, “COMPOSITIONS AND METHODS FOR TREATING DISEASES” (Sanford Burnham Prebys Medical Discovery Institute, priority 2020, published 2023)

Key:
Format in all cases: cell-based
[1] = tested on: AKT; assay: Inhibition of AKT phosphorylation on S473 in PC3 cells
Protocol: (§1) (FIG. 2A) Dose-response curves for EphA2 autophosphorylation on tyrosine 588 (pY588; purple) and for downstream inhibition of AKT phosphorylation (magenta). PC3 cells were treated for 15 min with different concentrations of the indicated peptides. […] The graphs show quantifications from multiple blots (averages ±SE; the number of experiments used to generate each curve is shown in Table 3). […] (FIG. 2B) Examples of immunoblots of lysates from PC3 cells treated with the indicated concentrations of representative ligands. […] A white vertical line indicates removal of irrelevant lanes. […] The bars show averages ±SE, and the individual measurements are shown as black dots. […] Plots of Etop versus EC50 for pY588 in FIG. 2D and for pAKT inh in FIG. 2E. Averages ±SE are shown for the peptides and ephrinA1.

[2] = target: T1, EphA2 (Homo sapiens, UniProt P29317); assay: Bias factor βlig (pY588 versus pAKT inhibition, PC3 cells, reference ephrinA1-Fc); parameters: EphA2 is the prevalent endogenously expressed EphA receptor in these cells; endogenous in cells; host or cells: PC3 prostate cancer cells
Protocol: FIG. 6 illustrates an example where Ligands can bias EphA2 signaling responses. The bias factor βlig was calculated for the indicated ligands using ephrinA1-Fc as the reference ligand. Statistical significance for the comparison of the different ligands with the reference ligand ephrinA1-Fc (βlig=0) was determined by one sample t test; *, P<0.05; **, P<0.01; ***, P<0.001; ****, P<0.0001.
FIG. 14A-14E illustrates an example where distinct factors are responsible for EphA2 biased signaling induced by different ligands. (FIG. 14A) Etop values for EphA2 Y588 phosphorylation, as in FIG. 2C. (FIG. 14B) Etop values for inhibition of AKT phosphorylation. (FIG. 14C) Graph of the ratios of the Etop values for EphA2 Y588 phosphorylation and inhibition of AKT phosphorylation, which are used in the βlig calculation. (FIG. 14D) Graph of the ratios of the EC50 values for EphA2 Y588 phosphorylation and inhibition of AKT phosphorylation, which are used in the βlig calculation. (FIG. 14E) Equation used to calculate the bias factor βlig for each ligand. The terms of the equation are rearranged, compared to equation (1) in the Materials and Methods, to better conform to the graphs in FIG. 14A-14D. **, P<0.01; ***, P<0.001; ****, P<0.0001; ns, not significant for the comparison with ephrinA1-Fc by one-way ANOVA and Dunnett's posthoc test.
The possibility of EphA2 biased signaling by analyzing the dose-response curves obtained with endogenous EphA2 in PC3 cells (FIG. 2A) was explored using approaches developed for GPCRs. This involves using EphA2 Y588 phosphorylation and AKT phosphorylation quantified as a function of ligand concentration to determine and compare the potency (EC50) and efficacy (Etop) for the two responses induced by different ligands. Remarkably, large differences among the ligands in the Etop values for Y588 phosphorylation (FIGS. 2C, 2D and 14A), but not in the Etop values for AKT inhibition (FIGS. 2E and 14B), were observed. In terms of relative efficacies for pY588 and pAKT inhibition, the C-terminally linked dimers and monomeric ligands behave differently from ephrinA1-Fc, while the N-terminally linked dimers and the head-to-tail dimer (8) are similar to ephrinA1-Fc (FIG. 14C). […] Thus, the type of linkage affects EphA2 signaling properties induced by the dimeric peptides.
The determined EC50 and Etop values allowed us to calculate the bias factor βlig for the two different responses induced by the various ligands relative to ephrinA1-Fc as the reference ligand (FIG. 14E). […] Remarkably, the bias originates from different mechanisms that depend on the class of ligands, with the N-terminally linked and head-to-tail dimers modulating relative potencies and the C-terminally-linked dimers and monomers modulating relative efficacies.

[3] = target: T1, EphA2; assay: EphA2 autophosphorylation on tyrosine 588 in PC3 cells (immunoblot dose-response); parameters: EphA2 is the prevalent endogenously expressed EphA receptor in these cells; endogenous in cells; host or cells: PC3 prostate cancer cells
Protocol: as §1
To examine the agonistic properties of the different dimeric peptide ligands, EphA2 autophosphorylation on tyrosine 588 (Y588) was measured, which is indicative of receptor activation and mediates binding of SH2 domain-containing proteins that link EphA2 to various downstream signaling pathways (FIG. 7). For these experiments, PC3 prostate cancer cells were stimulated with the dimeric peptides because EphA2 is the prevalent endogenously expressed EphA receptor in these cells, allowing comparisons with ephrins.

T1 sequence (P29317 24-976): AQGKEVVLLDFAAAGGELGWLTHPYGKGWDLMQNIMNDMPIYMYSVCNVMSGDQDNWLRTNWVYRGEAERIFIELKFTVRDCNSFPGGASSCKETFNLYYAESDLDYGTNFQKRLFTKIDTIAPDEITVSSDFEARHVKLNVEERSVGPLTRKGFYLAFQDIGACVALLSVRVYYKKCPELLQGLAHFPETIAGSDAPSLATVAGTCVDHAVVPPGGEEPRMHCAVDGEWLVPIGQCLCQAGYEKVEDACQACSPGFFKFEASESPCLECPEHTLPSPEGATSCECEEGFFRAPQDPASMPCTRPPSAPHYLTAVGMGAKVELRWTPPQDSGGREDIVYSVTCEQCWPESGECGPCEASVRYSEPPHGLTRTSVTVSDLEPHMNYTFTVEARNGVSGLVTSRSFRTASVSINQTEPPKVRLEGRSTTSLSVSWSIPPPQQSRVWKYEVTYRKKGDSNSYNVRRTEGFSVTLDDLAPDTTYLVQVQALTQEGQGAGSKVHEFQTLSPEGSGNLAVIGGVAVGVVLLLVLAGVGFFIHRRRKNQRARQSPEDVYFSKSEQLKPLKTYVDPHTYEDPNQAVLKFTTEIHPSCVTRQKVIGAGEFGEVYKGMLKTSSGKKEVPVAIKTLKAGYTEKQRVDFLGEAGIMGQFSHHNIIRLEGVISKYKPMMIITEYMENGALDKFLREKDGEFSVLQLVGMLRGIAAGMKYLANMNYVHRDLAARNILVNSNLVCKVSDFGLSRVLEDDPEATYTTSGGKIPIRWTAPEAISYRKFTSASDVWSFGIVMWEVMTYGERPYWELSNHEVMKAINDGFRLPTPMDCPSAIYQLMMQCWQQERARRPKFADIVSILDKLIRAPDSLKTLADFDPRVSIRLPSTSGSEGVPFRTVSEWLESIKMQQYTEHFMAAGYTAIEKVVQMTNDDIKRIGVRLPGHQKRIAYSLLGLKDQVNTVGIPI

CC(C)C[C@H](NC(=O)[C@H](Cc1c[nH]c2ccccc12)NC(=O)[C@H](C)NC(=O)CNC(=O)[C@@H](N)CSSC[C@H](N)C(=O)NCC(=O)N[C@@H](C)C(=O)N[C@@H](Cc1c[nH]c2ccccc12)C(=O)N[C@@H](CC(C)C)C(=O)N[C@@H](C)C(=O)N[C@@H](Cc1ccc(O)cc1)C(=O)N1CCC[C@H]1C(=O)N[C@@H](CC(=O)O)C(=O)N[C@@H](CO)C(=O)N[C@H](C(=O)N1CCC[C@H]1C(=O)N[C@@H](Cc1ccc(O)cc1)C(=O)N[C@@H](CCCNC(=N)N)C(=O)N1CCC[C@H]1C(=O)N[C@@H](CCCCN)C(=O)O)C(C)C)C(=O)N[C@@H](C)C(=O)N[C@@H](Cc1ccc(O)cc1)C(=O)N1CCC[C@H]1C(=O)N[C@@H](CC(=O)O)C(=O)N[C@@H](CO)C(=O)N[C@H](C(=O)N1CCC[C@H]1C(=O)N[C@@H](Cc1ccc(O)cc1)C(=O)N[C@@H](CCCNC(=N)N)C(=O)N1CCC[C@H]1C(=O)N[C@@H](CCCCN)C(=O)O)C(C)C [compound 5, CGA-WLA-YRPK dimer (N-ter)]
IC50 ([1]; PC3 cells): 0.068 ± 0.011 nM | EC50 ([1]; Table 3, PC3 cells treated for 15 min, read-out: ECsa pAKT inhlb.): 0.09 ± 0.02 nM | Etop pAKT inhlb ([1]; Table 3, PC3 cells, 15 min, 1-pAKT/AKT normalized to cells not treated with ligand): 1.0 ± 0.04 | βu (bias factor βlig) ([2]; Table 3, reference ligand ephrinA1-Fc (βlig=0)): 066 ± 0.12 | Blig ([2]; bias factor, reference ligand ephrinA1Fc): 0.81 ± 0.09 | Etop pY588 ([3]; Table 3, 15 min, saturating ligand, pY588/EphA2 normalized to ephrinA1-Fc): 0.87 ± 0.04 | Emax PY588 ([3]; ephrinA1Fc = 1.00): 0.78 ± 0.025 | EC50 ([3]; read-out: EC50 PY588): 0.53 ± 0.07 nM
